In US10828301B2, “2,4-pyrimidinediamine compounds and their uses” (Rigel Pharmaceuticals, Inc, priority 2002, dated 2020) one finds IC50 data, which are given here for 31 compounds.

The test system of test [1] is cultured human mast cells (CHMC). The test can be described thus: CHMC low cell density ionomycin activation: tryptase assay. The following applies: read-out: CHMC Ionomycin Tryptase. Format: cell-based.
Test [2] shares this test system. The test can be described thus: CHMC low cell density IgE activation: tryptase and LTC4 assays. The following applies: read-out: CHMC anti-IgE Tryptase. The format is cell-based. An outline of the steps:
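Cultured human mast cells at low density (1000-1500 per well) rested 1 h at 37° C, then stimulated with anti-IgE for 30 min at 37° C. Supernatant tryptase measured with fluorogenic substrate (30 min, room temperature); LTC4 quantified by ELISA on diluted supernatant.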

Setting [3] is: Homo sapiens, Mast cell, Low Density CHMC, ionomycin activation, tryptase readout.
Where [4] appears, read: Homo sapiens, Mast cell, Low Density CHMC, anti-IgE activation, tryptase readout.

Take `COC(=O)Cn1ncc2cc(Nc3ncc(F)c(Nc4ccc5c(c4)OCCO5)n3)ccc21` [Compound R935223, N4-(3,4-Ethylenedioxyphenyl)-5-fluoro-N2-[1-(methoxycarbonyl)methyl-indazoline-5-yl]-2,4-pyrimidinediamine]: the IC50 in test [1] (Low Density CHMC, ionomycin activation, tryptase readout) was above 10 µM; in test [2] (Low Density CHMC, anti-IgE activation, tryptase readout), 0.469 µM.

`COc1ccc(OCCNNc2ncc(F)c(Nc3cccc(O)c3)n2)cc1` [Compound R950211, 5-Fluoro-N4-(3-hydroxyphenyl)-N2-(4-methoxyphenyloxyethyleneamino)-2,4-pyrimidinediamine]: the IC50 is above 10 µM in test [1] (setting [3]) and 10 µM in test [2] (setting [4]).

On to `Oc1cccc(Nc2ncc(F)c(Nc3ccc(Cl)cn3)n2)c1` [Compound R927020, N4-(5-Chloropyridin-2-yl)-5-fluoro-N2-(3-hydroxyphenyl)-2,4-pyrimidinediamine], for which the IC50 was above 10 µM in test [1] (setting [3]) and 1.32 µM in test [2] (setting [4]).

Regarding `Cc1cc(Nc2ncc(F)c(Nc3ccc4c(c3)OCCO4)n2)c(C)cc1O` [Compound R926792, N2-(2,5-Dimethyl-4-hydroxyphenyl)-N4-(3,4-ethylenedioxyphenyl)-5-fluoro-2,4-pyrimidinediamine], the IC50 in test [1] (setting [3]) was above 10 µM; in test [2] (setting [4]) it was 3.2 µM.

In the case of `Oc1cccc(Nc2ncc(-c3ccc4c(c3)OCO4)c(Nc3cccc(O)c3)n2)c1` [Compound R925788, N2,N4-Bis(3-hydroxyphenyl)-5-(3,4-methylenedioxyphenyl)-2,4-pyrimidinediamine], the IC50 was above 10 µM in test [1] (setting [3]) and 2.4 µM in test [2] (setting [4]).

For the compound `Nc1cc(Nc2ncc(F)c(Nc3ccc(F)c(N)c3)n2)ccc1F` [Compound R950159, N2,N4-Bis(3-amino-4-fluorophenyl)-5-fluoro-2,4-pyrimidinediamine], the IC50 was above 10 µM in test [1] (setting [3]) and 0.61 µM in test [2] (setting [4]).

On to `CCCCCCOc1ccc(Nc2ncc(F)c(Nc3ccc4c(c3)OCCO4)n2)cc1` [Compound R920664, N4-(3,4-Ethylenedioxyphenyl)-5-fluoro-N2-(4-n-hexyloxyphenyl)-2,4-pyrimidindiamine], for which the IC50 in test [1] (setting [3]) and in test [2] (setting [4]) was above 10 µM each time.

As to `CCOC(=O)c1cc2cc(Nc3ncc(F)c(Nc4cccc(O)c4)n3)ccc2[nH]1` [Compound R926615, N2-(2-Ethoxycarbonylindol-5-yl)-5-fluoro-N4-(3-hydroxyphenyl)-2,4-pyrimidinediamine], the IC50 is above 10 µM in test [1] (setting [3]) and 0.445 µM in test [2] (setting [4]).

On to `Oc1cccc(Nc2ncc(F)c(NCCSCc3c(F)cccc3Cl)n2)c1` [Compound R926724, N4-[2-[(2-Chloro-6-fluorobenzyl)thio]ethyl]-5-fluoro-N2-(3-hydroxyphenyl)-2,4-pyrimidinediamine], for which the IC50 was above 10 µM in test [1] (setting [3]) and 2.06 µM in test [2] (setting [4]).

`COc1ccc(-c2ccccc2)cc1Nc1ncc(Br)c(Nc2cc(-c3ccccc3)ccc2OC)n1` [Compound R925799, N2,N4-Bis(2-methoxy-5-phenylphenyl)-5-bromo-2,4-pyrimidinediamine]: the IC50 in test [1] (setting [3]) and in test [2] (setting [4]) was above 10 µM throughout.

For the compound `COC(=O)c1cc2cc(Nc3ncc(F)c(Nc4ccc(Cl)cc4)n3)ccc2o1` [Compound R927026, N4-(4-Chlorophenyl)-5-fluoro-N2-(2-methoxycarbonylbenzofuran-5-yl)-2,4-pyrimidinediamine], the IC50 in test [1] (setting [3]) and in test [2] (setting [4]) was above 10 µM throughout.

For the compound `OCC(O)COc1ccc(Nc2ncc(F)c(Nc3cccc(O)c3)n2)cc1` (centres unmarked) [Compound R935180, N2-[4-(2,3-Dihydroxypropoxy)phenyl]-5-fluoro-N4-(3-hydroxyphenyl)-2,4-pyrimidinediamine], the IC50 in test [1] (setting [3]) is above 10 µM; in test [2] (setting [4]), 1.22 µM.

With `CN1C(=O)COc2ccc(Nc3ncc(F)c(Nc4cccc(O)c4)n3)cc21` [Compound R908703, 5-Fluoro-N4-(3-hydroxyphenyl)-N2-(N-methyl-1,4-benzoxazine-3-on-6-yl)-2,4-pyrimidinediamine], the IC50 is above 10 µM in test [1] (setting [3]) and 0.63 µM in test [2] (setting [4]).

As to `CC(C)Oc1ccc(Nc2nc(Nc3ccc(OCC(O)CO)cc3)ncc2F)cc1` (centres unmarked) [Compound R935175, N2-[4-(2,3-Dihydroxypropoxy)phenyl]-5-fluoro-N4-(4-isopropoxyphenyl)-2,4-pyrimidinediamine], the IC50 in test [1] (setting [3]) was above 10 µM; in test [2] (setting [4]), 0.885 µM.

Turning to `Fc1cnc(NCc2ccc3c(c2)CCO3)nc1Nc1ccc2c(c1)OCCO2` [Compound R950205, N2-[2,3-Dihydrobenzo[b]furan-5-ylmethyl]-N4-(3,4-ethylenedioxyphenyl)-5-fluoro-2,4-pyrimidinediamine], the IC50 is above 10 µM in test [1] (setting [3]) and 9 µM in test [2] (setting [4]).

Turning to `Fc1cnc(NCC2COc3ccccc3O2)nc1Nc1ccc2c(c1)OCCO2` (centres unmarked) [Compound R950206, N2-(2,3-Dihydro-1,4-benzodioxin-2-ylmethyl)-N4-(3,4-ethylenedioxyphenyl)-5-fluoro-2,4-pyrimidinediamine], the IC50 was above 10 µM in test [1] (setting [3]) and 3.66 µM in test [2] (setting [4]).

With `OCCOc1ccc(Nc2ncc(F)c(Nc3ccc4c(c3)N=CCO4)n2)cc1` [Compound R909248, N4-(1,4-Benzoxazin-6-yl)-5-fluoro-N2-[4-(2-hydroxyethyl)oxyphenyl]-2,4-pyrimidinediamine], the IC50 is above 10 µM in test [1] (setting [3]) and 3.58 µM in test [2] (setting [4]).

Turning to `CC(C)(C)c1ccc(Nc2nc(Nc3ccc4c(c3)CC(C(=O)O)O4)ncc2F)cc1` (centres unmarked) [Compound R926720, N4-(4-tert-Butylphenyl)-5-fluoro-N2-[2,3-dihydro-2-(carboxy)benzofuran-5-yl]-2,4-pyrimidinediamine], the IC50 in test [1] (setting [3]) was above 10 µM; in test [2] (setting [4]), 1.55 µM.

For the compound `O=S(=O)(c1ccc(Nc2ncc(F)c(Nc3ccc4c(c3)OCCO4)n2)cc1)N1CCCC1` [Compound R926716, N4-(3,4-Ethylenedioxyphenyl)-5-fluoro-N2-[4-(tetrahydro-(1H)-pyrrol-1-ylsulfonyl)phenyl]-2,4-pyrimidinediamine], the IC50 in test [1] (setting [3]) was above 10 µM; in test [2] (setting [4]), 1.06 µM.

`COc1cc(Nc2nc(Nc3cccc(O)c3)ncc2F)cc(OC)c1` [Compound R926802, N4-(3,5-Dimethoxyphenyl)-N2-(3-hydroxyphenyl)-5-fluoro-2,4-pyrimidinediamine]: the values for the IC50 in test [1] (setting [3]) and in test [2] (setting [4]) were above 10 µM and 1.25 µM, respectively.

On to `CCOC(=O)c1cccc(Nc2ncc(F)c(Nc3ccc4c(c3)OCCO4)n2)c1` [Compound R925745, N2-(3-Ethoxycarbonylphenyl)-N4-(3,4-ethylenedioxyphenyl)-5-fluoro-2,4-pyrimidinediamine], for which the values for the IC50 in test [1] (setting [3]) and in test [2] (setting [4]) were above 10 µM and 1.77 µM, respectively.

For the compound `Oc1cccc(Nc2ncc(F)c(NC3c4ccccc4-c4ccccc43)n2)c1` [Compound R935020, N4-(Fluoren-9-yl)-5-fluoro-N2-(3-hydroxyphenyl)-2,4-pyrimidinediamine], the IC50 in test [1] (setting [3]) and in test [2] (setting [4]) was above 10 µM each time.

In the case of `CN(C)C(=O)C=Nc1cccc(Nc2ncc(F)c(Nc3cccc(O)c3)n2)c1` [Compound R950220, N2-[3-(N,N-Dimethylamino)carbonylmethyleneaminophenyl]-5-fluoro-N4-(3-hydroxyphenyl)-2,4-pyrimidinediamine], the values for the IC50 in test [1] (setting [3]) and in test [2] (setting [4]) were above 10 µM and 0.489 µM, respectively.

Consider `O=C(O)c1ccc(Nc2ncc(F)c(Nc3ccc(C(=O)O)cc3)n2)cc1` [Compound R945037, N2,N4-Bis(4-carboxyphenyl)-5-fluoro-2,4-pyrimidinediamine], for which the IC50 in test [1] (setting [3]) and in test [2] (setting [4]) was above 10 µM in each case.

As to `O=[N+]([O-])c1cc(Nc2ncc(F)c(Nc3ccc(Cl)c([N+](=O)[O-])c3)n2)ccc1Cl` [Compound R950149, N2,N4-Bis(4-chloro-3-nitrophenyl)-5-fluoro-2,4-pyrimidinediamine], the IC50 in test [1] (Homo sapiens, Mast cell) is above 10 µM; in test [2] (Homo sapiens, Mast cell), 10 µM.

On to `CNC(=O)c1cc2cc(Nc3nc(Nc4ccc5c(c4)OCCO5)ncc3F)ccc2o1` [Compound R926491, N2-(3,4-Ethylenedioxyphenyl)-5-fluoro-N4-[2-(N-methylamino)carbonylbenzofuran-5-yl]-2,4-pyrimidinediamine], for which the IC50 was above 10 µM in test [1] (setting [3]) and 1.16 µM in test [2] (setting [4]).

In the case of `COc1cc(-c2ccccc2)c(C)cc1Nc1ncc(Br)c(Nc2cc(C)c(-c3ccccc3)cc2OC)n1` [Compound R925801, N2,N4-Bis(2-methoxy-5-methyl-4-phenylphenyl)-5-bromo-2,4-pyrimidinediamine], the IC50 in test [1] (setting [3]) and in test [2] (setting [4]) was above 10 µM throughout.

For the compound `Fc1cc(F)cc(Nc2ncc(F)c(Nc3ccc4c(c3)OCCO4)n2)c1` [Compound R926898, N4-(3,4-Ethylenedioxyphenyl)-5-fluoro-N2-(3,5-difluorophenyl)-2,4-pyrimidinediamine], the IC50 in test [1] (setting [3]) was above 10 µM; in test [2] (setting [4]), 1.1 µM.

As for `Cc1cc(CNc2nc(Nc3cccc(O)c3)ncc2F)c(C)o1` [Compound R945151, N4-[(2,5-Dimethyl-3-furyl)methyl]-5-fluoro-N2-(3-hydroxyphenyl)-2,4-pyrimidinediamine], the IC50 was above 10 µM in test [1] (setting [3]) and 4.07 µM in test [2] (setting [4]).

As for `Cc1ccc(Nc2ncc(F)c(Nc3ccc(C)c(N)c3)n2)cc1N` [Compound R950129, N2,N4-Bis(3-amino-4-methylphenyl)-5-fluoro-2,4-pyrimidinediamine], the IC50 in test [1] (setting [3]) was above 10 µM; in test [2] (setting [4]), 0.665 µM.

On to `Fc1cnc(Nc2cccc(-c3cnco3)c2)nc1Nc1ccc2c(c1)OCCO2` [Compound R926813, N4-(3,4-Ethylenedioxyphenyl)-5-fluoro-N2-[3-(1,3-oxazol-5-yl)phenyl]-2,4-pyrimidinediamine], for which the results for the IC50 in test [1] (setting [3]) and in test [2] (setting [4]) were above 10 µM and 0.152 µM, respectively.
